Laboratory results published in ChEMBL document CHEMBL5325442, “Diterpenoids and Their Glycosides from the Stems of Tinospora crispa with Beta-Cell Protective Activity” (2023).
Active and inactive are the calls of the source. The rule behind the calls is not given here.

How the values were obtained:
Type in all cases: functional
[1] = tested on: BRIN-BD11; experiment: Protection against dexamethasone-induced cytotoxicity in rat BRIN-BD11 cells assessed as increase in cell viability incubated for 48 hrs by WST-1 reagent based assay; conditions: dose <= 50.0 µM
[2] = tested on: BRIN-BD11; experiment: Protection against dexamethasone-induced cell cycle arrest in rat BRIN-BD11 cells assessed as restoration of dexamethasone-induced increase in G1 phase cells at 50 uM incubated for 48 hrs by RNase A staining based FACS analysis
[3] = tested on: BRIN-BD11; experiment: Protection against dexamethasone-induced cell cycle arrest in rat BRIN-BD11 cells assessed as restoration of dexamethasone-induced decrease in S phase cells at 50 uM incubated for 48 hrs by RNase A staining based FACS analysis
[4] = tested on: BRIN-BD11; experiment: Protection against dexamethasone-induced cell cycle arrest in rat BRIN-BD11 cells assessed as restoration of dexamethasone-induced decrease in G2/M phase cells at 50 uM incubated for 48 hrs by RNase A staining based FACS analysis
[5] = tested on: BRIN-BD11; experiment: Protection against dexamethasone-induced cytotoxicity in rat BRIN-BD11 cells assessed as increase in cell viability at 50 uM incubated for 48 hrs by WST-1 reagent based assay
[6] = tested on: BRIN-BD11; experiment: Protection against dexamethasone-induced cytotoxicity in rat BRIN-BD11 cells assessed as increase in cell viability at 400 uM incubated for 48 hrs by WST-1 reagent based assay

Row | SMILES | Activity [1] | Activity [2] | Activity [3] | Activity [4] | Activity [5] | Activity [6]
1 | COC(=O)C1=C[C@H](O)C[C@H]2[C@]3(C)C[C@@H](c4ccoc4)OC(=O)[C@@H]3C[C@@H](O[C@@H]3O[C@H](CO)[C@@H](O)[C@H](O)[C@H]3O)[C@@]12C | Active | – | – | – | – | –
2 | COC(=O)C1=CCC[C@H]2[C@]3(C)C[C@@H](c4ccoc4)OC(=O)[C@@H]3C[C@H](O[C@@H]3O[C@H](CO)[C@@H](O)[C@H](O)[C@H]3O)[C@@]12C | Dose-Dependent Effect | inactive | inactive | inactive | – | –
3 | COC(=O)C1=CCC[C@@H]2[C@](C)(CC(O[C@@H]3O[C@H](CO[C@@H]4O[C@H](CO)[C@@H](O)[C@H](O)[C@H]4O)[C@@H](O)[C@H](O)[C@H]3O)C3=CC(OC)OC3=O)[C@H]3C[C@H](OC3=O)[C@]12C (some centres not stated) | – | inactive | inactive | inactive | Active | –
4 | COC(=O)C1=CCC[C@H]2[C@]3(C)C[C@@H](c4ccoc4)OC(=O)C3=CC(O[C@@H]3O[C@H](CO)[C@@H](O)[C@H](O)[C@H]3O)[C@@]12C (some centres not stated) | Active | – | – | – | – | –
5 | COC(=O)C1=CCC[C@@H]2[C@](C)(CC(O[C@@H]3O[C@H](CO)[C@@H](O)[C@H](O)[C@H]3O)C3=CC(O)OC3=O)[C@H]3C[C@H](OC3=O)[C@]12C (some centres not stated) | Active | – | – | – | – | –
6 | COC(=O)C1=CCC[C@H]2[C@](C)(CC(O[C@@H]3O[C@H](CO)[C@@H](O)[C@H](O)[C@H]3O)c3ccoc3)[C@H]3C[C@H](OC3=O)[C@@]12C (some centres not stated) | Dose-Dependent Effect | inactive | inactive | inactive | Active | –
7 | COC(=O)C1=C[C@H](O)C[C@H]2[C@]3(C)C[C@@H](c4ccoc4)OC(=O)[C@H]3C[C@H](O[C@@H]3O[C@H](CO)[C@@H](O)[C@H](O)[C@H]3O)[C@@]12C | Active | – | – | – | – | –
8 | COC(=O)C1=CCC[C@H]2[C@](C)(C[C@@H](O[C@@H]3O[C@H](CO[C@@H]4O[C@H](CO)[C@@H](O)[C@H](O)[C@H]4O)[C@@H](O)[C@H](O)[C@H]3O)c3ccoc3)[C@H]3C[C@H](OC3=O)[C@@]12C | – | inactive | inactive | inactive | Active | –
9 | C[C@@]1(CC(=O)O)[C@@H](C(=O)O)C[C@H]2OC(=O)C3=CCC[C@@H]1[C@]32C | – | – | – | – | inactive | –
10 | C[C@@]12C[C@@H](c3ccoc3)OC(=O)[C@@H]1C[C@@H](O[C@@H]1O[C@H](CO)[C@@H](O)[C@H](O)[C@H]1O)[C@@]13COC(=O)C1=CCC[C@@H]23 | Active | – | – | – | – | –
11 | C[C@@]12C[C@@H](c3ccoc3)OC(=O)[C@@H]1C[C@@H]1OC(=O)[C@@]3(O)[C@@H](O[C@@H]4O[C@H](CO)[C@@H](O)[C@H](O)[C@H]4O)CC[C@@H]2[C@@]13C | Active | – | – | – | – | –
12 | CCCCNC(=O)NS(=O)(=O)c1ccc(C)cc1 | – | – | – | – | – | Active
13 | COC(=O)C1=CCC[C@H]2[C@](C)(C[C@H](O[C@@H]3O[C@H](CO)[C@@H](O)[C@H](O)[C@H]3O)[C@@]3(O)[C@H](OC)O[C@H](OC)[C@H]3O)[C@H]3C[C@H](OC3=O)[C@@]12C | – | – | – | – | inactive | –
14 | COC(=O)C1=C[C@H](O)C[C@@H]2[C@@]1(C)[C@@H](O[C@@H]1O[C@H](CO)[C@@H](O)[C@H](O)[C@H]1O)C=C1C(=O)O[C@H](c3ccoc3)C[C@]12C | Dose-Dependent Effect | inactive | inactive | inactive | Active | –
15 | COC(=O)C1=C[C@H](O)C[C@H]2[C@](C)(C[C@H](O[C@@H]3O[C@H](CO)[C@@H](O)[C@H](O)[C@H]3O)c3ccoc3)[C@H]3C[C@H](OC3=O)[C@@]12C | Dose-Dependent Effect | inactive | inactive | inactive | Active | –
16 | C[C@]12C[C@@H](c3ccoc3)OC(=O)[C@H]1CC[C@]1(C)[C@H]2[C@H]2C=C[C@]1(O[C@@H]1O[C@H](CO)[C@@H](O)[C@H](O)[C@H]1O)C(=O)O2 | Dose-Dependent Effect | inactive | inactive | inactive | Active | –
17 | COC(=O)C1=CCC[C@H]2[C@]3(C)C[C@@H](C4=C[C@H](OC)OC4=O)OC(=O)[C@@H]3CC(O[C@@H]3O[C@H](CO)[C@@H](O)[C@H](O)[C@H]3O)[C@@]12C (some centres not stated) | Active | – | – | – | – | –
18 | COC(=O)C1=CCC[C@H]2[C@]3(C)C[C@@H](C4=CC(O)OC4=O)OC(=O)[C@@H]3C[C@@H](O[C@@H]3O[C@H](CO)[C@@H](O)[C@H](O)[C@H]3O)[C@@]12C (some centres not stated) | – | – | – | – | Active | –
19 | COC(=O)C1=CCC[C@H]2[C@]3(C)C[C@@H](C4=CC(=O)OC4O)OC(=O)[C@@H]3C[C@@H](O[C@@H]3O[C@H](CO)[C@@H](O)[C@H](O)[C@H]3O)[C@@]12C (some centres not stated) | – | inactive | inactive | inactive | Active | –
